Data on one compound can be found in US12139458B2, “(2,5-dioxopyrrolidin-1-yl)(phenyl)-acetamide derivatives and their use in the treatment of neurological diseases” (UNIWERSYTET JAGIELLONSKI, priority 2019, dated 2024).

Data set [1] concerns male Swiss albino mice (CD-1). Kind of data set: Maximal electroshock seizure test (MES). It is filed as in vivo. In a few lines: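 Seizures were induced by auricular electroshock (25 mA, 500 V, 0.2 s) 30 min after a single i.p. dose in 1% aqueous Tween, scoring hind-limb tonic extension. Animals were male Swiss CD-1 mice, 18–26 g; ED50 was estimated from 3–4 dose groups of 6.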

Data set [2] relates to male white Swiss mice (CD-1). Put plainly: Oxaliplatin-induced neuropathic pain, von Frey test. It is filed as in vivo. Conditions: for pain threshold, von Frey test: 7 days after OXPT, after OXPT 1.89±0.04 g; for pain threshold as % of the initial value, von Frey test: initial value 3.36±0.10 g. As for the experimental part: The tests were carried out using male white Swiss mice (CD-1) weighing 18-25 g. All procedures were carried out in accordance with Polish and international guidelines on ethics of animal testing, after obtaining appropriate institutional approval. The study group consisted of 8-10 animals. The tested and reference substances were administered intraperitoneally 30 minutes before given test as suspension in 1% aqueous solution of Tween. All tests/models were carried out based on the procedures described in the specialist literature: the formalin test (Beirith, A.; Santos, A. R.; Calixto, J. B.; Rodrigues, A. L.; Creczynski-Pasa, T. B. Eur. J. Pharmacol. 1998, 345, 233-245), the model of capsaicin-induced pain (Mogilski, S.; Kubacka, M.; Redzicka, A.; Kazek, G.; Dudek, M.; Malinka, W.; Filipek, B. Pharmacol. Biochem. Behav. 2015, 133, 99-110), the model of oxaliplatin-induced neuropathic pain—von Frey test (Sałat, K.; Cios, A.; Wyska, E.; Satat, R.; Mogilski, S.; Filipek, B.; Wigȩkowski, K.; Malawska, B. Pharmacol. Biochem. Behav. 2014, 122, 173-181).
Oxaliplatin (OXPT) was dissolved in a 5% glucose solution, followed by intraperitoneal administration to mice. A single dose of 10 mg/kg was used. Tactile and thermal (sensation of low temperature) allodynia associated with oxaliplatin-induced neuropathy are characterized by two phases. The early phase is acute and develops soon after administration of the OXPT, while the symptoms of the later (chronic) phase (associated with neurons damage), develops after a few days. Behavioral tests in mice with OXPT-induced neuropathy were carried out 7 days after its administration, i.e. in the late phase of neuropathy.
The influence of compounds tested on tactile allodynia was determined in the von Frey test. The animals were placed individually in cages with a reticulated bottom, 60 minutes before the beginning of the experiment, in order to adapt to the new environment. An electronic Von Frey apparatus (Electronic Von Frey, Bioseb, France) was used to assess the pain threshold for mechanical stimuli. The von Frey's fiber was applied to the underside of the right mouse paw with increasing pressure. […] The measurement was performed 3 times for each mouse, with at least 30 seconds between the measurements, then the results obtained were averaged. The entire study was performed 3 times: before OXPT administration to determine the baseline pain threshold; 7 days after administration of OXPT, and before administration of test compounds, to assess developing neuropathy by setting a new pain threshold; 30 minutes after administration of the compounds to determine their influence developed neuropathy.
Compound 6 was administered at doses of 10, 20 and 30 mg/kg.

Data set [3] concerns the target T1, CYP2D6 (Homo sapiens, UniProt P10635).
T1 construct: purchased Promega (Madison, WI, USA)
Kind of data set: CYP2D6 P450-Glo luminescence test. It is filed as in vitro ADME. As to conditions: 10 μM. The protocol: Effect of compound 6 on cytochrome P-450 3A4 and 2D6 activity. The research was conducted using commercial luminescence tests CYP3A4 P450-Glo™ and CYP2D6 P450-Glo™ from Promega (Madison, WI, USA) based on the methodology described in the literature (Socała, K.; Mogilski, S.; Pieróg, M.; Nieoczym, D.; Abram, M.; Szulczyk, B.; Lubelska, A.; Latacz, G.; Doboszewska, U.; Wlaź, P.; Kamiński, K. ACS Chem. Neurosci. 2018, doi: 10.1021/acschemneuro.8b00476; Latacz, G.; Lubelska, A.; Jastrzȩbska-Wiȩek, M.; Partyka, A.; Sobato, A.; Olejarz, A.; Kucwaj-Brysz, K.; Satata, G.; Bojarski, A. J.; Wesołowska, A.; Kieć-Kononowicz, K.; Handzlik, J. Chem. Biol. Drug. Des. 2017, 90, 1295-1306). The CYP isoforms selected for study are responsible for the metabolism of approximately 40-50% of the drugs available on the market, and their stimulation or inhibition determines the majority of metabolic drug interactions. […] In summary, the results obtained indicate a low probability of potential metabolic interactions caused by 6.

T1 sequence (P10635 whole entry): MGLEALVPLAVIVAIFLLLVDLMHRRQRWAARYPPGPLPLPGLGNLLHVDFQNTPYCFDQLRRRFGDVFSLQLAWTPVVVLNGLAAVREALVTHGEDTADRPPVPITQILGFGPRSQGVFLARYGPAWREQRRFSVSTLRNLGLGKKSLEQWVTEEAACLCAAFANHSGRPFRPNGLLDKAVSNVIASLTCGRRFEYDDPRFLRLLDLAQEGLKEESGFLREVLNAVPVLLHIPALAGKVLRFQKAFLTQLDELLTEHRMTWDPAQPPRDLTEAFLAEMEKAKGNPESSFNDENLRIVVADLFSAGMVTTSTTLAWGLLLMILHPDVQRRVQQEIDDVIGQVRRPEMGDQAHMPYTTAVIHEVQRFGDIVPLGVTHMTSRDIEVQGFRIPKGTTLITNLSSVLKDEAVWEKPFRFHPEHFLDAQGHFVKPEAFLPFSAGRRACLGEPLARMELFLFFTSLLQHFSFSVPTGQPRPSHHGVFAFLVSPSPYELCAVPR

Take `O=C(C(c1ccccc1)N1C(=O)CCC1=O)N1CCN(c2cccc(C(F)(F)F)c2)CC1` (racemic) [Compound 6, 1-(2-Oxo-1-phenyl-2-(4-(3-(trifluoromethyl)phenyl)piperazin-1-yl)ethyl)pyrrolidine-2,5-dione]: in data set [1] (Mus musculus, ip, 0.5 h, mice), the 50% effect level (ED50) was put at a dose of 23.7 mg/kg. Moreover, in data set [1] (screening, 100 mg/kg, time point 0.5 h), the “mice protected in the MES test” value is 100%. The “pain threshold, von Frey test” value came out at 2.87 ± 0.12 g in data set [2] (10 mg/kg i.p.), 3.83 ± 0.13 g in data set [2] (20 mg/kg i.p.) and 4.17 ± 0.17 g in data set [2] (30 mg/kg i.p.). For the same compound, the results for the “pain threshold as % of the initial value, von Frey test” value in data set [2] (10 mg/kg i.p.), in data set [2] (20 mg/kg i.p.) and in data set [2] (30 mg/kg i.p.) were 85.41%, 113.98% and 124.10%, respectively. In addition, the “effect on CYP2D6 activity” value in data set [3] was “very weak stimulating effect”.
